In patent US7555415B2, “Methods for the design of estrogen receptor ligands” (Wyeth, priority 2005, dated 2009):

Key:
[1] = system: Adjuvant Induced Arthritis (AIA); assay: Adjuvant Induced Arthritis: daily arthritis severity / paw swelling score; format: in vivo, Lewis rats
[2] = system: Collagen Induced Arthritis; assay: Collagen induced arthritis model (anti-type II collagen mAbs plus LPS): hind paw edema; format: in vivo; settings: BALB/c mice, 2.5 mg/kg orally once daily, over the course of the experiment
Experimental: Compound 2 was evaluated in BALB/c mice, 6-8 weeks of age, in which arthritis was induced by monoclonal antibodies raised against type II collagen, plus lipopolysaccharide (LPS). The animals were administered intravenously with a combination of four different mAbs totaling 4 mg/mouse on day 0, and followed by intravenous administration of […] of LPS 72 hours later (day 3). From day 3, one hour after LPS application, tested compounds were given orally once daily for 15 days. For each animal, an increase in volume of both hind paws was measured using a plethysmometer with water cell (12 mm diameter) on days 0, 5, 7, 10, 14 and 17. Percent inhibition of increase in volume was calculated. Reduction of edema in the hind paws by 30% or more was considered significant.

[3] = system: Adjuvant Induced Arthritis (AIA); assay: Adjuvant-induced arthritis: histological scoring of cartilage changes (Mankin score) in tarsal joints; format: in vivo, Lewis rats; settings: for Cartilage Cells (0-3) / Cartilage Structure (0-6) / Saffranin-O/Fast Green Staining (0-4) / Total Mankin Score (0-14): means ± SD
Experimental: (§1) Forty-two male, 8-10 weeks old, Lewis rats were housed according to standard facility operating procedures. They received a standard regimen of food and water ad libitum. Each animal was identified by a cage card indicating the project group and animal number. Each rat number was marked by indelible ink marker on the tail. Freund's Adjuvant-Complete (Sigma Immuno Chemicals, St. Louis, Mo.) was used to induce arthritis. Each mL contained 1 mg Mycobacterium tuberculosis heat killed and dried, 0.85 mL mineral oil and 0.15 mL mannide monooleate (Lot No. 084H8800).
(§2) The rats were injected intradermally with 0.1 mL of Freund's Adjuvant-Complete at the base of the tail. The animals were randomized to […], each group containing six rats. The groups received vehicle (2% Tween 80, 0.5% methylcellulose), or the Compound 2 compound at 1.0 mg/kg, 0.3 mg/kg, or 0.1 mg/kg orally each day. The rats began treatment on Day 8 after adjuvant injection.
(§3) At the end of the study the rats were euthanized with CO2, hindlimbs were removed at necropsy and fixed in 10% buffered formalin, and the tarsal joints were decalcified and embedded in paraffin. Histologic sections were stained with Hemotoxylin and Eosin or Saffranin O-Fast Green stain.
(§4) Slides were coded so that the examiner was blind to the treatment groups. Synovial tissue from tarsal joints were evaluated based on synovial hyperplasia, inflammatory cell infiltration, and pannus formation (see Table 4). Articular cartilage and bone was evaluated using Mankin's histological grading system. Biochemical and metabolic abnormalities in articular cartilage was assessed as from osteoarthritic human hip (see J. Bone Joint Surg (AM) 53A:152-153) (Table 5).

[4] = system: Adjuvant Induced Arthritis (AIA); assay: Adjuvant-induced arthritis: histological scoring of synovitis in tarsal joints; format: in vivo, Lewis rats; settings: for Fibroplasia (0-3) / Inflammatory Cells (0-3) / Pannus (0-2) / Synovial Structure (0-3) / Total Synovitis Score (0-10): means ± SD
Experimental: Rats were injected with Complete Freund's Adjuvant (CFA), and synovitis in the tarsal joints was monitored.
as §1, §2, §3, §4

[5] = Compound 2, 0.1 mg/kg orally for 2 weeks from day 8 after CFA
[6] = Compound 2, 0.3 mg/kg orally for 2 weeks from day 8 after CFA
[7] = Compound 2, 1 mg/kg orally for 2 weeks from day 8 after CFA
[8] = all concentrations tested (down to 0.1 mg/kg)

## C[C@@H]1c2cc(F)ccc2-c2ccccc2N1S(=O)(=O)c1ccc(O)cc1 [Compound 2, 4-[(8-Fluoro-6-methylphenanthridin-5(6H)-yl)sulfonyl]phenol]
[1]; 0.3 mg/kg (first column so headed, c3) orally each day from Day 8, Day 8
  Paw swelling score (maximal score per day 12): 11.5
[1]; 0.3 mg/kg (first column so headed, c3) orally each day from Day 8, Day 9
  Paw swelling score (maximal score per day 12): 9.8
[1]; 0.3 mg/kg (first column so headed, c3) orally each day from Day 8, Day 10
  Paw swelling score (maximal score per day 12): 7.3
[1]; 0.3 mg/kg (first column so headed, c3) orally each day from Day 8, Day 11
  Paw swelling score (maximal score per day 12): 7
[1]; 0.3 mg/kg (first column so headed, c3) orally each day from Day 8, Day 12
  Paw swelling score (maximal score per day 12): 6.7
[1]; 0.3 mg/kg (first column so headed, c3) orally each day from Day 8, Day 13
  Paw swelling score (maximal score per day 12): 3.7
[1]; 0.3 mg/kg (first column so headed, c3) orally each day from Day 8, Day 14
  Paw swelling score (maximal score per day 12): 3
[1]; 0.3 mg/kg (first column so headed, c3) orally each day from Day 8, Day 15
  Paw swelling score (maximal score per day 12): 3.7
[1]; 0.3 mg/kg (first column so headed, c3) orally each day from Day 8, Day 16
  Paw swelling score (maximal score per day 12): 2.3
[1]; 0.3 mg/kg (first column so headed, c3) orally each day from Day 8, Day 17
  Paw swelling score (maximal score per day 12): 2.3
[1]; 0.3 mg/kg (first column so headed, c3) orally each day from Day 8, Day 18
  Paw swelling score (maximal score per day 12): 2.3
[1]; 0.3 mg/kg (first column so headed, c3) orally each day from Day 8, Day 19
  Paw swelling score (maximal score per day 12): 2
[1]; 0.3 mg/kg (first column so headed, c3) orally each day from Day 8, Day 20
  Paw swelling score (maximal score per day 12): 2
[1]; 0.3 mg/kg (first column so headed, c3) orally each day from Day 8, Day 21
  Paw swelling score (maximal score per day 12): 1.7
[1]; 0.3 mg/kg (first column so headed, c3) orally each day from Day 8, Day 22
  Paw swelling score (maximal score per day 12): 1.7
[1]; 0.3 mg/kg (first column so headed, c3) orally each day from Day 8, Day 23
  Paw swelling score (maximal score per day 12): 1
[1]; 0.3 mg/kg (first column so headed, c3) orally each day from Day 8, Day 24
  Paw swelling score (maximal score per day 12): 1.3
[1]; 0.3 mg/kg (second column so headed, c4) orally each day from Day 8, Day 8
  Paw swelling score (maximal score per day 12): 11.3
[1]; 0.3 mg/kg (second column so headed, c4) orally each day from Day 8, Day 9
  Paw swelling score (maximal score per day 12): 10.7
[1]; 0.3 mg/kg (second column so headed, c4) orally each day from Day 8, Day 10
  Paw swelling score (maximal score per day 12): 9.3
[1]; 0.3 mg/kg (second column so headed, c4) orally each day from Day 8, Day 11
  Paw swelling score (maximal score per day 12): 9.7
[1]; 0.3 mg/kg (second column so headed, c4) orally each day from Day 8, Day 12
  Paw swelling score (maximal score per day 12): 10
[1]; 0.3 mg/kg (second column so headed, c4) orally each day from Day 8, Day 13
  Paw swelling score (maximal score per day 12): 4.2
[1]; 0.3 mg/kg (second column so headed, c4) orally each day from Day 8, Day 14
  Paw swelling score (maximal score per day 12): 3.5
[1]; 0.3 mg/kg (second column so headed, c4) orally each day from Day 8, Day 15
  Paw swelling score (maximal score per day 12): 3.5
[1]; 0.3 mg/kg (second column so headed, c4) orally each day from Day 8, Day 16
  Paw swelling score (maximal score per day 12): 3.3
[1]; 0.3 mg/kg (second column so headed, c4) orally each day from Day 8, Day 17
  Paw swelling score (maximal score per day 12): 3.3
[1]; 0.3 mg/kg (second column so headed, c4) orally each day from Day 8, Day 18
  Paw swelling score (maximal score per day 12): 3.3
[1]; 0.3 mg/kg (second column so headed, c4) orally each day from Day 8, Day 19
  Paw swelling score (maximal score per day 12): 3
[1]; 0.3 mg/kg (second column so headed, c4) orally each day from Day 8, Day 20
  Paw swelling score (maximal score per day 12): 2.8
[1]; 0.3 mg/kg (second column so headed, c4) orally each day from Day 8, Day 21
  Paw swelling score (maximal score per day 12): 2.5
[1]; 0.3 mg/kg (second column so headed, c4) orally each day from Day 8, Day 22
  Paw swelling score (maximal score per day 12): 2.5
[1]; 0.3 mg/kg (second column so headed, c4) orally each day from Day 8, Day 23
  Paw swelling score (maximal score per day 12): 1.2
[1]; 0.3 mg/kg (second column so headed, c4) orally each day from Day 8, Day 24
  Paw swelling score (maximal score per day 12): 1.3
[1]; 1 mg/kg orally each day from Day 8, Day 8
  Paw swelling score (maximal score per day 12): 11.3
[1]; 1 mg/kg orally each day from Day 8, Day 9
  Paw swelling score (maximal score per day 12): 8.8
[1]; 1 mg/kg orally each day from Day 8, Day 10
  Paw swelling score (maximal score per day 12): 7
[1]; 1 mg/kg orally each day from Day 8, Day 11
  Paw swelling score (maximal score per day 12): 6
[1]; 1 mg/kg orally each day from Day 8, Day 12
  Paw swelling score (maximal score per day 12): 5
[1]; 1 mg/kg orally each day from Day 8, Day 13
  Paw swelling score (maximal score per day 12): 1.7
[1]; 1 mg/kg orally each day from Day 8, Day 14
  Paw swelling score (maximal score per day 12): 1.3
[1]; 1 mg/kg orally each day from Day 8, Day 15
  Paw swelling score (maximal score per day 12): 1.3
[1]; 1 mg/kg orally each day from Day 8, Day 16
  Paw swelling score (maximal score per day 12): 1.2
[1]; 1 mg/kg orally each day from Day 8, Day 17
  Paw swelling score (maximal score per day 12): 1.2
[1]; 1 mg/kg orally each day from Day 8, Day 18
  Paw swelling score (maximal score per day 12): 1.2
[1]; 1 mg/kg orally each day from Day 8, Day 19
  Paw swelling score (maximal score per day 12): 1.2
[1]; 1 mg/kg orally each day from Day 8, Day 20
  Paw swelling score (maximal score per day 12): 1.2
[1]; 1 mg/kg orally each day from Day 8, Day 21
  Paw swelling score (maximal score per day 12): 1.2
[1]; 1 mg/kg orally each day from Day 8, Day 22
  Paw swelling score (maximal score per day 12): 1.2
[1]; 1 mg/kg orally each day from Day 8, Day 23
  Paw swelling score (maximal score per day 12): 1
[1]; 1 mg/kg orally each day from Day 8, Day 24
  Paw swelling score (maximal score per day 12): 0.8
[1]; following treatment, there appeared to be a dose response
  Paw swelling and redness (joint scores): Decreases
[2]
  Inhibition of paw edema: > 30%
[3]; [5]
  Tidemark Integrity (0-1): 0
  Cartilage Cells (0-3): 1.92 ± 0.21
  Cartilage Structure (0-6): 2.33 ± 0.68
  Saffranin-O/Fast Green Staining (0-4): 2.42 ± 0.67
  Total Mankin Score (0-14): 6.83 ± 1.25
[3]; [6]
  Tidemark Integrity (0-1): 0
  Cartilage Cells (0-3): 1.50 ± 0.32
  Cartilage Structure (0-6): 1.75 ± 0.42
  Saffranin-O/Fast Green Staining (0-4): 2.17 ± 0.26
  Total Mankin Score (0-14): 5.42 ± 0.74*t
[3]; [7]
  Tidemark Integrity (0-1): 0
  Cartilage Cells (0-3): 1.17 ± 0.26*t
  Cartilage Structure (0-6): 1.25 ± 0.27
  Saffranin-O/Fast Green Staining (0-4): 2.17 ± 0.26
  Total Mankin Score (0-14): 4.58 ± 0.74*t
[3]; [8]
  Overall cartilage score: significantly improved
[4]; [5]
  Fibroplasia (0-3): 1.75 ± 0.42
  Inflammatory Cells (0-3): 1.83 ± 0.52
  Pannus (0-2): 1.50 ± 0.84
  Synovial Structure (0-3): 2.33 ± 0.75
  Total Synovitis Score (0-10): 7.42 ± 2.25
[4]; [6]
  Fibroplasia (0-3): 1.67 ± 0.26*t
  Inflammatory Cells (0-3): 1.25 ± 0.27
  Pannus (0-2): 0.50 ± 0.84
  Synovial Structure (0-3): 1.58 ± 0.38
  Total Synovitis Score (0-10): 5.00 ± 1.30*#t
[4]; [7]
  Fibroplasia (0-3): 1.33 ± 0.41*t
  Inflammatory Cells (0-3): 1.17 ± 0.26
  Pannus (0-2): 0.25 ± 0.42
  Synovial Structure (0-3): 1.42 ± 0.38
  Total Synovitis Score (0-10): 4.17 ± 1.21*#t
[4]; [8]
  Overall synovitis score: significantly improved
